Laboratory results: US10208049B2, “Compounds and methods of treating ocular disorders” (Case Western Reserve University, priority 2009, dated 2019)

What was measured:
[1] = Formation of Schiff base between retinal and selected amines (UV/Vis spectra); format: physicochemical; details: 90% ethanol in water, 0.1 M phosphate buffer pH 7.0, 2 molar excess of amine, 1 h room temperature
Description: Formation of conjugates (Schiff-base) between retinal and primary amine compounds containing amino group (putative drugs) is the key mechanism to control all-trans-RAL levels in the retina and prevent retina degeneration. Stability of these conjugates is an important factor that can determine biological activity of the drugs. To standardize conditions of Schiff-base formation all reactions were performed in 90% ethanol in water buffered with 0.1 M phosphate buffer, pH 7.0. Stock solution of retinal was made up freshly in ethanol. Its final concentration was determined spectrophotometrically at 380 nm (ε=42,880). All procedures were carried out in the dark. Schiff base formation was initiated by addition of retinal stock solution to a 2 molar excess of tested amine dissolved in the reaction buffer. The reaction mixture was incubated for 1 h in room temperature.
Steady-state rate of Schiff-base formation was obtained from absorbance changes at 380 and 440 nm (510 nm for aromatic amines) corresponding to free retinal and protonated Schiff base, respectively. To investigate stability of the given retinal conjugates a mixture of HPLC purified Schiff base of selected compound and phosphatidylocholine was dried down in SpeedVac. Then, Schiff-base and lipids were overlaid with 0.1 M phosphate buffer and sonicated immediately to form liposomes. The samples were extracted with hexane following 30 min incubated in room temperature. The breakdown of Schiff-base was monitored by HPLC detection of free retinal extracted from the reaction mixture.
FIGS. 3-5 illustrate UV/Vis spectra for the FDA approved drugs. FDA approved drugs that were active readily formed a Schiff base with all-trans-RAL as evidenced by a substantial differential between spectra of unprotonated and protonated Schiff base.

Rdh8−/−Abca4−/− mice = experiment: SD-OCT grading of retinal degeneration in light-exposed Rdh8−/−Abca4−/− mice; format: in vivo, mouse; details: for Score OCT: Rdh8−/−Abca4−/− mice, SD-OCT 7 days after 10,000 lux illumination for 30 min at 4 weeks of age, score 5 = no degeneration, 1 = severe, No Treatment 1; for effectiveness in treating retinal degeneration in the mice: ABCA4−/−/RDH8−/− mice, effective = OCT score at least about 2.5 and 11-cis-retinal increase at least about 30%
Description: (§1) We tested 21 drugs containing primary amino groups to determine if they react with the aldehyde group of all-trans-RAL to reduce its toxic levels in the eye after exposure to light and prevent its condensation into toxic conjugates. […] For these experiments, we used ABCA4^−/−/RDH8^−/− mice as models for Stargardt's disease and AMD. We employed analytical methods for determining the pharmacodynamics and pharmacokinetics of candidate drugs including: HPLC/MS/MS for analysis of retinoids and histological sections and OCT for assessment of retinal pathology. The relative amount of retinoids and their composition strongly correlates with the health status of the retina. […] Methodologies for performing the analysis on ABCA4^−/−/RDH8^−/− mice is described below.
(§2) Abca4^−/− mice also were generated by standard procedures (Ingenious Targeting, Inc., Stony Brook, N.Y.). […] Rdh8^−/−Abca4^−/− mice were established by crossbreeding Abca4^−/− mice with Rdh8^−/− mice. […] PCR products were cloned and sequenced to verify their identities.
Although analytical and histological methods provide exhaustive characterization of retina, they cannot be performed in vivo. To reduce the number of sacrificed animals and time required for analysis, SD-OCT from Bioptigen (Research Triangle Park, N.C.) was employed for in vivo imaging of mouse retinas. Bioptigen OCT systems utilize a narrow single-mode beam from a wide bandwidth light source to probe the structure of retina at a higher resolution (2.0 μm) than normal OCT systems. Mice were anesthetized by intraperitoneal (IP) injection of 20 μl/g bw of 6 mg/ml ketamine and 0.44 mg/ml xylazine diluted with 10 mM sodium phosphate, pH 7.2, containing 100 mM NaCl. Pupils were dilated with 1% tropicamide. In vivo SD-OCT images were obtained from both eyes. Four pictures acquired in a B-scan mode were used to construct the final averaged images (FIG. 8).
In vivo retinal structures of Rdh8^−/−Abca4^−/− mice are imaged by SD-OCT 7 days after 10,000 lux illumination for 30 min at 4 weeks of age.

ABCA4−/−/RDH8−/− mice = experiment: HPLC analysis of 11-cis-retinal in eyes of ABCA4−/−/RDH8−/− mice; format: in vivo, mouse; details: HPLC peak area of 11-cis-retinal, No Treatment 88.2
Description: as §1, §2
All experimental procedures related to extraction, derivatization, and separation of retinoids from dissected mouse eyes were carried out under dim red light. Two whole mouse eyes were homogenized in 1 ml of 50 mM phosphate buffer, pH 7.0, containing 50% ethanol and 10 mM NH2OH. Ice-cold methanol (1 ml) was added to the homogenates 20 min after incubation at room temperature (RT), non-polar retinoids were extracted twice with 4 ml of hexane. The organic phase was collected, dried down in a SpeedVac and re-solubilized in 0.3 ml of hexane. […] Retinoids were detected at 325 nm (retinyl esters and retinols) and 350 nm (retinyl oximes) with a diode array detector. Those of interest were quantified based on the areas under their peaks calculated with the help of HP Chemstation A.03.03 software and compared with areas calculated based on known amounts of synthetic standards plotted as a standard curve.

## Nc1ccc(C(=O)[O-])cc1.[K+] [Potaba]
[1]
  formation of stable Schiff-base with all-trans-RAL: did not readily form stable Schiff-bases
Rdh8−/−Abca4−/− mice
  Score OCT: 2.3
ABCA4−/−/RDH8−/− mice
  11cRAL (area): 90.6

## CC(N)C12CC3CC(CC(C3)C1)C2 (stereo not drawn) [Flumadine]
Rdh8−/−Abca4−/− mice
  effectiveness in treating retinal degeneration in the mice: effective in treating retinal degeneration
ABCA4−/−/RDH8−/− mice
  11cRAL (area): 135.3

## COCCCC/C(=N\OCCN)c1ccc(C(F)(F)F)cc1 [Luvox]
Rdh8−/−Abca4−/− mice
  effectiveness in treating retinal degeneration in the mice: effective in treating retinal degeneration
ABCA4−/−/RDH8−/− mice
  11cRAL (area): 175.5

## NCc1ccc(S(N)(=O)=O)cc1 [Sulfamylon]
Rdh8−/−Abca4−/− mice
  effectiveness in treating retinal degeneration in the mice: effective in treating retinal degeneration
ABCA4−/−/RDH8−/− mice
  11cRAL (area): 166.1

## NS(=O)(=O)c1cc2c(cc1Cl)N=C[N-]S2(=O)=O.[Na+] [Sodium Diuril]
Rdh8−/−Abca4−/− mice
  effectiveness in treating retinal degeneration in the mice: effective in treating retinal degeneration
ABCA4−/−/RDH8−/− mice
  11cRAL (area): 139.7

## N[C@@H]1CON=C1O [Seromycin]
[1]
  formation of stable Schiff-base with all-trans-RAL: readily formed stable Schiff-bases
Rdh8−/−Abca4−/− mice
  effectiveness in treating retinal degeneration in the mice: effective in treating retinal degeneration
ABCA4−/−/RDH8−/− mice
  11cRAL (area): 159.9

## Nc1ccc(C(=O)NCC(=O)[O-])cc1.[Na+] [Aminohippurate Sodium]
Rdh8−/−Abca4−/− mice
  Score OCT: 1
ABCA4−/−/RDH8−/− mice
  11cRAL (area): 109.4

## N[C@@H](CC(=O)N1CCn2c(nnc2C(F)(F)F)C1)Cc1cc(F)c(F)cc1F [Januvia]
Rdh8−/−Abca4−/− mice
  effectiveness in treating retinal degeneration in the mice: effective in treating retinal degeneration
ABCA4−/−/RDH8−/− mice
  11cRAL (area): 126.8

## Nc1ccc(C(=O)O)c(O)c1 [Paser]
[1]
  formation of stable Schiff-base with all-trans-RAL: readily formed stable Schiff-bases
Rdh8−/−Abca4−/− mice
  effectiveness in treating retinal degeneration in the mice: effective in treating retinal degeneration
ABCA4−/−/RDH8−/− mice
  11cRAL (area): 151.9

## NCCCC[C@H](N[C@@H](CCc1ccccc1)C(=O)O)C(=O)N1CCC[C@H]1C(=O)O [Prinivil]
Rdh8−/−Abca4−/− mice
  Score OCT: 2.0
ABCA4−/−/RDH8−/− mice
  11cRAL (area): 132.7

## CCOC(=O)C1=C[C@@H](OC(CC)CC)[C@H](NC(C)=O)[C@@H](N)C1 [Tamiflu]
Rdh8−/−Abca4−/− mice
  Score OCT: 1.3
ABCA4−/−/RDH8−/− mice
  11cRAL (area): 87.3

## CC(C)(S)[C@@H](N)C(=O)O [Cuprimine]
[1]
  formation of stable Schiff-base with all-trans-RAL: did not readily form stable Schiff-bases
Rdh8−/−Abca4−/− mice
  Score OCT: 1.7
ABCA4−/−/RDH8−/− mice
  11cRAL (area): 118.5

## Nc1ccc(O)c(C(=O)O)c1 [Asacol]
Rdh8−/−Abca4−/− mice
  effectiveness in treating retinal degeneration in the mice: effective in treating retinal degeneration
ABCA4−/−/RDH8−/− mice
  11cRAL (area): 140.2

## Nc1ccc(S(=O)(=O)c2ccc(N)cc2)cc1 [Dapsone]
Rdh8−/−Abca4−/− mice
  effectiveness in treating retinal degeneration in the mice: effective in treating retinal degeneration
ABCA4−/−/RDH8−/− mice
  11cRAL (area): 156.5

## CC12CC3CC(C)(C1)CC(N)(C3)C2 [Nameda]
Rdh8−/−Abca4−/− mice
  Score OCT: 1.7
ABCA4−/−/RDH8−/− mice
  11cRAL (area): 97.6

## CC(C)C[C@@H](CN)CC(=O)O [(R)-3-(aminomethyl)-5-methylhexanoic acid]
Rdh8−/−Abca4−/− mice
  effectiveness in treating retinal degeneration in the mice: effective in treating retinal degeneration
ABCA4−/−/RDH8−/− mice
  11cRAL (area): 164.8

## CC(C)C[C@H](CN)CC(=O)O [Lyrica, (S)-3-(aminomethyl)-5-methylhexanoic acid]
[1]
  formation of stable Schiff-base with all-trans-RAL: readily formed stable Schiff-bases
Rdh8−/−Abca4−/− mice
  effectiveness in treating retinal degeneration in the mice: effective in treating retinal degeneration
ABCA4−/−/RDH8−/− mice
  11cRAL (area): 166.5
